Laboratory results as given in patent US20250215030A1, “STAT MODULATORS AND USES THEREOF” (Recludix Pharma, Inc., priority 2022, published 2025).

Assays:
[1] = molecular target: T1, Recombinant STAT3 protein (STAT3(G127-I722)) (Homo sapiens, UniProt P40763); assay: STAT3 Fluorescence Polarization (FP) Assay; type: binding; details: STAT3(G127-I722) 25 nM, probe 5-FAM-GpYLPQTV-NH2 2 nM, 45-minute incubation
T1 construct: STAT3(G127-I722)
How it was run: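 STAT3(G127-I722) at 25 nM and 5-FAM-GpYLPQTV-NH2 probe at 2 nM in HEPES pH 7.4 buffer with NaCl, EDTA, Tween 20, DTT; 1% DMSO. FP read after 45 min at room temperature; IC50 by nonlinear regression of mP vs log concentration, binned A ≤100 nM to D >10 μM.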

[2] = molecular target: T2, Recombinant STAT6 protein (STAT6(W123-T658)) (Homo sapiens, UniProt P42226); assay: STAT6 Fluorescence Polarization (FP) Assay; type: binding; details: STAT6(W123-T658) 250 nM, probe 5-FAM-ApYKPFQDLI-NH2 2 nM, 45-minute incubation
T2 construct: STAT6(W123-T658)
T2 sequence (P42226 123-658): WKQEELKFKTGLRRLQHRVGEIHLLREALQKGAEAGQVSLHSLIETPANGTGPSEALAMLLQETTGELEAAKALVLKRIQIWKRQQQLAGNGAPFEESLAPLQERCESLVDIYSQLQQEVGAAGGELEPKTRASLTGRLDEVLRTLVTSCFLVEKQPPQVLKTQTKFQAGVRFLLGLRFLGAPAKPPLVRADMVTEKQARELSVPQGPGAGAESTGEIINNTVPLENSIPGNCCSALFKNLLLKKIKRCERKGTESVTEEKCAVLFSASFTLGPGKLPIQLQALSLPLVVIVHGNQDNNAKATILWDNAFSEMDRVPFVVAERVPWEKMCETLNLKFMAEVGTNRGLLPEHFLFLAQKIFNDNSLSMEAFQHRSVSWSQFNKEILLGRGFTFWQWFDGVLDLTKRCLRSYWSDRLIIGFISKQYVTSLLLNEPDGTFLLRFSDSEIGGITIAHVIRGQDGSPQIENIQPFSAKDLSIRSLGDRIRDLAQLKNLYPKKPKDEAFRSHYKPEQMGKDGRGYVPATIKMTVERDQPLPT
How it was run: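 STAT6 (W123-T658) at 250 nM mixed with 2 nM 5-FAM-ApYKPFQDLI-NH2 probe in HEPES pH 7.4 buffer with DTT and Tween 20, 1% DMSO final. Polarization read after 45 min at room temperature; IC50 by nonlinear regression of mP versus log concentration, reported in bins A–D.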

T1 sequence (P40763 127-722, species assumed): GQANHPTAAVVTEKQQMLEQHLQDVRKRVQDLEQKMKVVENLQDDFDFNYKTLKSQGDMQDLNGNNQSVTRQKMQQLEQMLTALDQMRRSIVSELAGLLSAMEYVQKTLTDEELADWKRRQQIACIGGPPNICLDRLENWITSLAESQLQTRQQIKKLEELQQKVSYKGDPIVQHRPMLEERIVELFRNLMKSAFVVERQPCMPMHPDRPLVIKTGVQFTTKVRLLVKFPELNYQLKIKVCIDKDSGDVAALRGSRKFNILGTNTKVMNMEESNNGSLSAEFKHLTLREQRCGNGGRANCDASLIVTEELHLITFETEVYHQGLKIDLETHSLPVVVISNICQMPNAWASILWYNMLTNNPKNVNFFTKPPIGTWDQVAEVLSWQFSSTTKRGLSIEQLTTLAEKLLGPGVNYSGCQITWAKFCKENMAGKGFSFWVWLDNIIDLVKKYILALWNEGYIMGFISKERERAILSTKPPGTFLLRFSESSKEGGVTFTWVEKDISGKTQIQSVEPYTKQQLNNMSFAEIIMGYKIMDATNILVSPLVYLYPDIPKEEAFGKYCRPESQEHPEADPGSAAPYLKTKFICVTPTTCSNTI

| SMILES | IC50 [1] | IC50 [2] |
| --- | --- | --- |
| N#CC1(c2ccccn2)CN(C(=O)[C@@H]2CC[C@@H]3C[C@@H]4C[C@@H]4C[C@H](NC(=O)c4cc5cc(C(F)(F)P(=O)(O)O)ccc5s4)C(=O)N32)C1 [Compound 70, ((2-(((3S,6S,7aR,8aS,9aR)-3-(3-cyano-3-(pyridin-2-yl)azetidine-1-carbonyl)-5-oxodecahydro-1H-cyclopropa[d]pyrrolo[1,2-a]azocin-6-yl)carbamoyl)benzo[b]thiophen-5-yl)difluoromethyl)phosphonic acid] | < 0.1 µM | 0.3 to 3 µM |
| O=C(N[C@H]1C[C@H]2C[C@H]2C[C@H]2CC[C@@H](C(=O)N3CC(C(=O)N4CCOCC4)C3)N2C1=O)c1cc2cc(C(F)(F)P(=O)(O)O)ccc2s1 [Compound 71, (difluoro(2-(((3S,6S,7aR,8aS,9aR)-3-(3-(morpholine-4-carbonyl)azetidine-1-carbonyl)-5-oxodecahydro-1H-cyclopropa[d]pyrrolo[1,2-a]azocin-6-yl)carbamoyl)benzo[b]thiophen-5-yl)methyl)phosphonic acid] | < 0.1 µM | 3 to 30 µM |
| CN=S(C)(=O)CC1CN(C(=O)[C@@H]2CC[C@@H]3C[C@@H]4C[C@@H]4C[C@H](NC(=O)c4cc5cc(C(F)(F)P(=O)(O)O)ccc5s4)C(=O)N32)C1 (stereo partly drawn) [Compound 72, ((2-(((3S,6S,7aR,8aS,9aR)-3-(3-((N,S-dimethylsulfonimidoyl)methyl)azetidine-1-carbonyl)-5-oxodecahydro-1H-cyclopropa[d]pyrrolo[1,2-a]azocin-6-yl)carbamoyl)benzo[b]thiophen-5-yl)difluoromethyl)phosphonic acid] | < 0.1 µM | 3 to 30 µM |
| O=C(N[C@H]1C[C@H]2C[C@H]2C[C@H]2CC[C@@H](C(=O)N3CC(CC(F)F)(c4ccccc4)C3)N2C1=O)c1cc2cc(C(F)(F)P(=O)(O)O)ccc2s1 [Compound 73, ((2-(((3S,6S,7aR,8aS,9aR)-3-(3-(2,2-difluoroethyl)-3-phenylazetidine-1-carbonyl)-5-oxodecahydro-1H-cyclopropa[d]pyrrolo[1,2-a]azocin-6-yl)carbamoyl)benzo[b]thiophen-5-yl)difluoromethyl)phosphonic acid] | < 0.1 µM | 3 to 30 µM |
| N#Cc1ccc(C2CN(C(=O)[C@@H]3CC[C@@H]4C[C@@H]5C[C@@H]5C[C@H](NC(=O)c5cc6cc(C(F)(F)P(=O)(O)O)ccc6s5)C(=O)N43)C2)cc1 [Compound 74, ((2-(((3S,6S,7aR,8aS,9aR)-3-(3-(4-cyanophenyl)azetidine-1-carbonyl)-5-oxodecahydro-1H-cyclopropa[d]pyrrolo[1,2-a]azocin-6-yl)carbamoyl)benzo[b]thiophen-5-yl)difluoromethyl)phosphonic acid] | < 0.1 µM | 0.3 to 3 µM |
| COC1(c2nccn2C)CN(C(=O)[C@@H]2CC[C@@H]3C[C@@H]4C[C@@H]4C[C@H](NC(=O)c4cc5cc(C(F)(F)P(=O)(O)O)ccc5s4)C(=O)N32)C1 [Compound 75, (difluoro(2-(((3S,6S,7aR,8aS,9aR)-3-(3-methoxy-3-(1-methyl-1H-imidazol-2-yl)azetidine-1-carbonyl)-5-oxodecahydro-1H-cyclopropa[d]pyrrolo[1,2-a]azocin-6-yl)carbamoyl)benzo[b]thiophen-5-yl)methyl)phosphonic acid] | < 0.1 µM | 3 to 30 µM |
| CC(C)C1(c2ccccc2)CN(C(=O)[C@@H]2CC[C@@H]3C[C@@H]4C[C@@H]4C[C@H](NC(=O)c4cc5cc(C(F)(F)P(=O)(O)O)ccc5s4)C(=O)N32)C1 [Compound 79, (difluoro(2-(((3S,6S,7aR,8aS,9aR)-3-(3-isopropyl-3-phenylazetidine-1-carbonyl)-5-oxodecahydro-1H-cyclopropa[d]pyrrolo[1,2-a]azocin-6-yl)carbamoyl)benzo[b]thiophen-5-yl)methyl)phosphonic acid] | < 0.1 µM | 3 to 30 µM |
| Cc1nnc(C2(C)CN(C(=O)[C@@H]3CC[C@@H]4C[C@@H]5C[C@@H]5C[C@H](NC(=O)c5cc6cc(C(F)(F)P(=O)(O)O)ccc6s5)C(=O)N43)C2)o1 [Compound 82, (difluoro(2-(((3S,6S,7aR,8aS,9aR)-3-(3-methyl-3-(5-methyl-1,3,4-oxadiazol-2-yl)azetidine-1-carbonyl)-5-oxodecahydro-1H-cyclopropa[d]pyrrolo[1,2-a]azocin-6-yl)carbamoyl)benzo[b]thiophen-5-yl)methyl)phosphonic acid] | < 0.1 µM | 0.3 to 3 µM |

Other lines, results leading:

| IC50 [1] | IC50 [2] | SMILES |
| --- | --- | --- |
| < 0.1 µM | 3 to 30 µM | Cn1cnnc1C1CN(C(=O)[C@@H]2CC[C@@H]3C[C@@H]4C[C@@H]4C[C@H](NC(=O)c4cc5cc(C(F)(F)P(=O)(O)O)ccc5s4)C(=O)N32)C1 [Compound 76, (difluoro(2-(((3S,6S,7aR,8aS,9aR)-3-(3-(4-methyl-4H-1,2,4-triazol-3-yl)azetidine-1-carbonyl)-5-oxodecahydro-1H-cyclopropa[d]pyrrolo[1,2-a]azocin-6-yl)carbamoyl)benzo[b]thiophen-5-yl)methyl)phosphonic acid] |
| < 0.1 µM | 3 to 30 µM | O=C(N[C@H]1C[C@H]2C[C@H]2C[C@H]2CC[C@@H](C(=O)N3CC(c4[nH]nc5c4CCC5)C3)N2C1=O)c1cc2cc(C(F)(F)P(=O)(O)O)ccc2s1 [Compound 77, (difluoro(2-(((3S,6S,7aR,8aS,9aR)-5-oxo-3-(3-(2,4,5,6-tetrahydrocyclopenta[c]pyrazol-3-yl)azetidine-1-carbonyl)decahydro-1H-cyclopropa[d]pyrrolo[1,2-a]azocin-6-yl)carbamoyl)benzo[b]thiophen-5-yl)methyl)phosphonic acid] |
| < 0.1 µM | 3 to 30 µM | O=C(N[C@H]1C[C@H]2C[C@H]2C[C@H]2CC[C@@H](C(=O)N3CC(c4nc5ccccc5[nH]4)C3)N2C1=O)c1cc2cc(C(F)(F)P(=O)(O)O)ccc2s1 [Compound 78, ((2-(((3S,6S,7aR,8aS,9aR)-3-(3-(1H-benzo[d]imidazol-2-yl)azetidine-1-carbonyl)-5-oxodecahydro-1H-cyclopropa[d]pyrrolo[1,2-a]azocin-6-yl)carbamoyl)benzo[b]thiophen-5-yl)difluoromethyl)phosphonic acid] |
| < 0.1 µM | 3 to 30 µM | O=C(N[C@H]1C[C@H]2C[C@H]2C[C@H]2CC[C@@H](C(=O)N3CC(c4ncccn4)C3)N2C1=O)c1cc2cc(C(F)(F)P(=O)(O)O)ccc2s1 [Compound 80, (difluoro(2-(((3S,6S,7aR,8aS,9aR)-5-oxo-3-(3-(pyrimidin-2-yl)azetidine-1-carbonyl)decahydro-1H-cyclopropa[d]pyrrolo[1,2-a]azocin-6-yl)carbamoyl)benzo[b]thiophen-5-yl)methyl)phosphonic acid] |
| < 0.1 µM | 0.3 to 3 µM | Cc1nnc(C2CN(C(=O)[C@@H]3CC[C@@H]4C[C@@H]5C[C@@H]5C[C@H](NC(=O)c5cc6cc(C(F)(F)P(=O)(O)O)ccc6s5)C(=O)N43)C2)[nH]1 [Compound 81, (difluoro(2-(((3S,6S,7aR,8aS,9aR)-3-(3-(5-methyl-4H-1,2,4-triazol-3-yl)azetidine-1-carbonyl)-5-oxodecahydro-1H-cyclopropa[d]pyrrolo[1,2-a]azocin-6-yl)carbamoyl)benzo[b]thiophen-5-yl)methyl)phosphonic acid] |
